Some results are limits rather than exact numbers.

T1 sequence (P52702 whole entry): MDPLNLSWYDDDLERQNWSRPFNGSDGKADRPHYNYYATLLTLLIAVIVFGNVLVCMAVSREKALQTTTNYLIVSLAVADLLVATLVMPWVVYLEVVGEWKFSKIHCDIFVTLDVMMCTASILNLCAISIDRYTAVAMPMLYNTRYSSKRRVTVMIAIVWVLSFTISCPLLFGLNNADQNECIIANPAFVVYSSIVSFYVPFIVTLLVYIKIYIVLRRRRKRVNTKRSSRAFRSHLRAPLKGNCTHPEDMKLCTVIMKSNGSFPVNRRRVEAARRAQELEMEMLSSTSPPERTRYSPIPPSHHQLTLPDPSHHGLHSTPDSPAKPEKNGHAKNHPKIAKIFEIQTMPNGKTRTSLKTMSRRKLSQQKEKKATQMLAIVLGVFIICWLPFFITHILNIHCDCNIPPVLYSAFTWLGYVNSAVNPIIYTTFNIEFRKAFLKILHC

In the first series the test system is D4 receptors. Put plainly: D4 receptor binding, 3H-YM 09151-2 displacement, COS cell pellets. Also on record: species or system African Green monkey. The following applies: evaluated in the assays described above (Example 7); read-out: interaction with the D4 receptor subtype (IC50). As for the experimental part:
(§1) Pellets of COS cells containing recombinantly produced D2 or D4 receptors from African Green monkey are used for the assays. The sample is homogenized in 100 volumes (w/vol) of 0.05 M Tris HCl buffer at 4° C. and pH 7.4. The sample is then centrifuged at 30,000×g and resuspended and rehomogenized. The sample is again centrifuged as described above and the final tissue sample is frozen until use. The tissue is resuspended 1:20 (wt/vol) in 0.05 M Tris HCl buffer containing 100 mm NaCl.
(§2) Incubations are carried out at […] and contain 0.4 ml of tissue sample, 0.5 nM ^3H-YM 09151-2 (Nemonapride, cis-5-Chloro-2-methoxy-4-(methylamino)-N-(2-methyl-2-(phenylmethyl)-3-pyrrolidinyl)benzamide) and the compound of interest in a total incubation of 1.0 ml. Nonspecific binding is defined as that binding found in the presence of […]; without further additions, nonspecific binding is less than 20% of total binding. Binding characteristics for examples of compounds encompassed within Formula I for the D2 and D4 receptor subtypes are shown in Table 2 for rat striatal homogenates.
Broadly, the IC50 is the concentration at which inhibition is half-maximal. Take `c1ccc(CN2CCN(c3ccc4ccccc4c3)CC2)cc1` [Comparative Compound A, 1-naphth-2-yl-4-benzylpiperazine, reference compound]: the 50% inhibitory concentration (IC50) is 33 nM.

In the case of `c1ccc(CN2CCN(c3ccc4ccccc4n3)CC2)cc1` [Comparative Compound B, 1-(quinolin-2-yl)-4-benzylpiperazine, reference compound], the 50% inhibitory concentration (IC50) stood at 194 nM.

The series is the same for the next values; noted with them: recombinant receptor in COS cells; 0.5 nM 3H-YM 09151-2.
A word on the Ki: it is the dissociation constant of the complex between target and ligand, obtained from inhibition or displacement. Take `Clc1ccc(CN2CCN(c3ccc4ccccc4c3)CC2)cc1` [Compound 6]: the Ki was determined as 9 nM. With `Clc1ccc(CN2CCN(c3ccc4c(n3)CCCC4)CC2)cc1` [Compound 7], the Ki is 7 nM. The same measure, in the same setting: next, `Cc1ccc(CN2CCN(c3ccc4ccccc4n3)CC2)cc1` [Compound 2]: 8 nM. The same measure, in the same setting: the same measure for `Clc1ccc(CN2CCN(c3cnc4ccccc4n3)CC2)cc1` [Compound 3]: 11 nM.

Another series concerns the target T1, D2 receptors (Chlorocebus aethiops, UniProt P52702).
T1 construct: expressed in transfected cells; host or cells: COS cells
Put plainly: D2 receptor binding, 3H-YM 09151-2 displacement, COS cell pellets. Also on record: species or system African Green monkey. Conditions: recombinant receptor in COS cells; 0.5 nM 3H-YM 09151-2. Here is the method:
as §1, §2
With `Clc1ccc(CN2CCN(c3ccc4ccccc4c3)CC2)cc1` [Compound 6], the Ki is greater than 4000 nM.

For the compound `Clc1ccc(CN2CCN(c3ccc4c(n3)CCCC4)CC2)cc1` [Compound 7], the inhibitory constant (Ki) came out at 1930 nM. As for `Cc1ccc(CN2CCN(c3ccc4ccccc4n3)CC2)cc1` [Compound 2], the Ki is greater than 4000 nM.

As for `Clc1ccc(CN2CCN(c3cnc4ccccc4n3)CC2)cc1` [Compound 3], the Ki is greater than 4000 nM.

Tested on in another series: not given
Assay: not given
Conditions: not given
Broadly, the melting point is the temperature of the solid-liquid transition. For the compound `Br.Cc1cc(N2CCN(Cc3ccc(Cl)cc3)CC2)nc2ccccc12`, the melting point was in the range of 215 to 217 °C. `Br.Cc1cc(N2CCN(Cc3ccc(Cl)cc3)CC2)nc2c(C)cccc12` displayed a melting point of 262 to 264 °C. As for `Fc1ccc(CN2CCN(c3cc(F)c4ccccc4n3)CC2)cc1.O=C(O)C(=O)O`, the melting point was in the range of 191 to 193 °C. Still for that read-out and setting: the same measure for `Br.Cc1nc2ccccc2nc1N1CCN(Cc2ccc(Cl)cc2)CC1`: 293 to 295 °C; for `Clc1ccc(CN2CCN(c3cnc4ccccc4n3)CC2)cc1.O=C(O)C(=O)O`: 209 to 212 °C. In turn, `Cl.Clc1ccc(CN2CCN(c3ccc4ccccc4c3)CC2)cc1` yielded a melting point of 216 to 218 °C. Same read-out and setting: next, `CC(C)(C)c1ccc(CN2CCN(c3ccc4ccccc4n3)CC2)cc1.Cl`: 285 to 287 °C; `Br.c1ccc2nc(N3CCN(Cc4ccc5c(c4)OCO5)CC3)ccc2c1`: 279 to 280 °C; `Br.Clc1ccc(CN2CCN(c3ccc4ccccc4n3)CC2)cc1`: 268 to 271 °C. On the same count and under the same terms, the same measure for `Cc1ccc(CN2CCN(c3ccc4ccccc4n3)CC2)cc1.Cl`: 278 to 280 °C; for `Fc1cc(N2CCN(Cc3ccccc3)CC2)nc2ccccc12.O=C(O)C(=O)O`: 186 to 187 °C; for `COc1ccc2nc(N3CCN(Cc4ccc(Cl)cc4)CC3)cc(C)c2c1.Cl`: 250 to 253 °C. The compound `Clc1ccc(CN2CCN(c3ncc4ccccc4n3)CC2)cc1.O=C(O)C(=O)O` gave a melting point of 207 to 209 °C. With `Br.Cc1ccc(CN2CCN(c3ccc4ccccc4c3)CC2)cc1`, the melting point was 222 to 223 °C. Still for that read-out and setting: next, `CC(C)c1ccc(CN2CCN(c3ccc4ccccc4n3)CC2)cc1.Cl`: 270 to 271 °C; `Br.Fc1ccc(CN2CCN(c3ccc4ccccc4c3)CC2)cc1`: 244 to 246 °C; `Br.Fc1ccccc1CN1CCN(c2ccc3ccccc3c2)CC1`: 239 to 240 °C. Compound `Br.Cc1ccc2c(C)cc(N3CCN(Cc4ccc(Cl)cc4)CC3)nc2c1` gave a melting point of 295 to 296 °C. On to `Br.Clc1ccc(CN2CCN(c3ccc4ccccc4n3)CC2)cc1Cl`, for which the melting point was 285 to 287 °C. Same read-out and setting: the same measure for `Br.Fc1cccc(CN2CCN(c3ccc4ccccc4c3)CC2)c1`: 253 to 255 °C.

The compound `Br.FC(F)(F)c1ccc(CN2CCN(c3ccc4ccccc4n3)CC2)cc1` showed a melting point of 271 to 273 °C.

As to `FC(F)(F)Oc1ccc(CN2CCN(c3ccc4ccccc4n3)CC2)cc1` [Example 3(l), 1-(quinolin-2-yl)-4-(1-[4-trifluoromethoxyphenyl]methyl)piperazine], the melting point fell in the range of 109 to 110 °C.

Values taken from US6384224B2, “Certain 1-(2-naphthyl) and 1-(2-azanaphthyl)-4-(1-phenylmethyl) piperazines; dopamine receptor subtype specific ligands” (Neurogen Corporation, priority 1997, dated 2002).
